# According to patent publication US20260242419A1, “A CYCLIC PEPTIDE FOR TRAPPING INTERLEUKIN-1 BETA” (Merck Sharp & Dohme LLC, priority 2023, published 2026):
# Starred links: 1 amine or outer side, 2 acyl side, 3 side chain; linkers in the order of their positions; H or OH if unused. Non-standard residues stand in square brackets, D forms with d. Residues, ends and D or L forms follow the SMILES beside them. dPro(4R-(4-pyridylmethyl)) = O=C(O)[C@H]1C[C@@H](Cc2ccncc2)CN1; Trp(βS-Me,4-F) = C[C@@H](c1c[nH]c2cccc(F)c12)[C@H](N)C(=O)O; Bip(4'-COOH) = N[C@@H](Cc1ccc(-c2ccc(C(=O)O)cc2)cc1)C(=O)O; Ala(1-bicyclo(1.1.1)pentyl) = N[C@@H](CC12CC(C1)C2)C(=O)O; dPro(4R-Bzl(4-F)) = O=C(O)[C@H]1C[C@@H](Cc2ccc(F)cc2)CN1; dPro(3S-(4-F-Bn)) = O=C(O)[C@@H]1NCC[C@@H]1Cc1ccc(F)cc1; 1Nal(3S-Me) = C[C@@H](c1cccc2ccccc12)[C@H](N)C(=O)O; X12 = Cn1ccnc1-c1ccc(C[C@H](N[*:1])C(=O)[*:2])cc1; X4 = O=C([C@H]1[C@@H](Cc2ccncc2)CCN1[*:1])[*:2]; Ala(pyrimidin-5-yl) = N[C@@H](Cc1cncnc1)C(=O)O; Phe(4-COOH) = N[C@@H](Cc1ccc(C(=O)O)cc1)C(=O)O; Bip = N[C@@H](Cc1ccc(-c2ccccc2)cc1)C(=O)O; Pro(cis-4-F) = O=C(O)[C@@H]1C[C@H](F)CN1; d(αMeF) = C[C@@](N)(Cc1ccccc1)C(=O)O; d(αMeD) = C[C@@](N)(CC(=O)O)C(=O)O; 4Pal = N[C@@H](Cc1ccncc1)C(=O)O; dCha = N[C@H](CC1CCCCC1)C(=O)O; NMeDab = CN[C@@H](CCN)C(=O)O; dDab = NCC[C@@H](N)C(=O)O; Orn = NCCC[C@H](N)C(=O)O; Dab = NCC[C@H](N)C(=O)O; Aib = CC(C)(N)C(=O)O
# Target: T1, IL-1β (Homo sapiens, UniProt P01584)
# T1 construct: purchased BioLegend 579404
# T1 sequence (P01584 117-269): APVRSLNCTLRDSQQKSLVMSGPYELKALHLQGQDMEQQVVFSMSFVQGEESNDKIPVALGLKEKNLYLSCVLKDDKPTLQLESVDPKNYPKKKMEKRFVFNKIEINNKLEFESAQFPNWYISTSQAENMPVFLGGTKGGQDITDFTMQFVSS
# Experiment: IL-6 assay in MRC5 cells: inhibition of IL-1β induced IL-6 secretion (AlphaLISA)
# Assay type: cell-based
# Details: inhibition of IL-1β induced IL-6 secretion in MRC5 cells; compound pre-incubated 1 hour with recombinant human IL-1β; read-out: MRC5 IC50
# Procedure, shortened: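 Compound was pre-incubated 1 h at ambient temperature with recombinant human IL-1β at 2λ EC80 before adding human lung fibroblast MRC5 cells (3000/well) in EMEM with 0.025% BSA. After overnight culture at 37 °C, 5% CO2, secreted IL-6 in conditioned medium was measured by AlphaLISA; IC50 from 4-parameter logistic fits.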
row,SMILES,IC50 [nM]
1,"C[C@@H](c1c[nH]c2cccc(F)c12)[C@@H]1NC(=O)[C@@H]2C[C@H](F)CN2C(=O)CNC(=O)[C@H](Cc2ccc(C(=O)O)cc2)NC(=O)[C@H](Cc2ccncc2)NC(=O)[C@H](Cc2ccc(-c3ccc(C(=O)O)cc3)cc2)NC(=O)[C@H]2[C@@H](Cc3ccncc3)CCN2C(=O)CNC(=O)[C@H](CCN)N(C)C(=O)[C@H](CCC(N)=O)NC(=O)[C@H](Cc2cncnc2)NC(=O)C(C)(C)NC(=O)[C@H](Cc2c[nH]c3ccccc23)NC(=O)[C@H](CO)NC(=O)C(C)(C)NC1=O [Example 241] (cyclo([Bip(4'-COOH)][4Pal][Phe(4-COOH)]G[Pro(cis-4-F)][Trp(βS-Me,4-F)][Aib]SW[Aib][Ala(pyrimidin-5-yl)]Q[NMeDab]G[X4]))",0.018
2,"C[C@@H](c1c[nH]c2cccc(F)c12)[C@@H]1NC(=O)[C@@H]2C[C@H](F)CN2C(=O)CNC(=O)[C@H](Cc2ccc(C(=O)O)cc2)NC(=O)[C@H](Cc2ccncc2)NC(=O)[C@H](Cc2ccc(-c3ccc(C(=O)O)cc3)cc2)NC(=O)[C@H]2[C@@H](Cc3ccncc3)CCN2C(=O)CNC(=O)[C@H](CCN)NC(=O)[C@H](CCC(N)=O)NC(=O)[C@@H](CC2CCCCC2)NC(=O)[C@@](C)(CC(=O)O)NC(=O)[C@H](Cc2c[nH]c3ccccc23)NC(=O)[C@H](CO)NC(=O)C(C)(C)NC1=O [Example 237] (cyclo([Bip(4'-COOH)][4Pal][Phe(4-COOH)]G[Pro(cis-4-F)][Trp(βS-Me,4-F)][Aib]SW[d(αMeD)][dCha]Q[Dab]G[X4]))",0.025
3,"C[C@@H](c1c[nH]c2cccc(F)c12)[C@@H]1NC(=O)[C@@H]2C[C@H](F)CN2C(=O)CNC(=O)[C@H](Cc2ccc(C(=O)O)cc2)NC(=O)[C@H](Cc2ccncc2)NC(=O)[C@H](Cc2ccc(-c3nccn3C)cc2)NC(=O)[C@H]2[C@@H](Cc3ccc(F)cc3)CCN2C(=O)CNC(=O)[C@H](CCN)NC(=O)[C@H](CCC(N)=O)NC(=O)[C@H](Cc2cncnc2)NC(=O)[C@@](C)(CC(=O)O)NC(=O)[C@H](Cc2c[nH]c3ccccc23)NC(=O)[C@H](CO)NC(=O)C(C)(C)NC1=O [Example 280] (cyclo([X12][4Pal][Phe(4-COOH)]G[Pro(cis-4-F)][Trp(βS-Me,4-F)][Aib]SW[d(αMeD)][Ala(pyrimidin-5-yl)]Q[Dab]G[dPro(3S-(4-F-Bn))]))",0.016

# Results, then the compound that gave them:
row,IC50 [nM],SMILES
1,0.028,"C[C@@H](c1c[nH]c2cccc(F)c12)[C@@H]1NC(=O)[C@@H]2C[C@H](F)CN2C(=O)CNC(=O)[C@H](Cc2ccc(C(=O)O)cc2)NC(=O)[C@H](Cc2ccncc2)NC(=O)[C@H](Cc2ccc(-c3ccccc3)cc2)NC(=O)[C@H]2C[C@@H](Cc3ccncc3)CN2C(=O)CNC(=O)[C@H](CCN)NC(=O)[C@H](CCC(N)=O)NC(=O)[C@@H](CCN)NC(=O)[C@@](C)(CC(=O)O)NC(=O)[C@H](Cc2c[nH]c3ccccc23)NC(=O)[C@H](CO)NC(=O)C(C)(C)NC1=O [Example 248] (cyclo([Bip][4Pal][Phe(4-COOH)]G[Pro(cis-4-F)][Trp(βS-Me,4-F)][Aib]SW[d(αMeD)][dDab]Q[Dab]G[dPro(4R-(4-pyridylmethyl))]))"
2,0.02,"C[C@@H](c1c[nH]c2cccc(F)c12)[C@@H]1NC(=O)[C@@H]2C[C@H](F)CN2C(=O)CNC(=O)[C@H](Cc2ccc(C(=O)O)cc2)NC(=O)[C@H](Cc2ccncc2)NC(=O)[C@H](Cc2ccc(-c3ccc(C(=O)O)cc3)cc2)NC(=O)[C@H]2C[C@@H](Cc3ccncc3)CN2C(=O)CNC(=O)[C@H](CCN)NC(=O)[C@H](CCC(N)=O)NC(=O)[C@H](CCC(=O)O)NC(=O)[C@@](C)(Cc2ccccc2)NC(=O)[C@H](Cc2c[nH]c3ccccc23)NC(=O)[C@H](CO)NC(=O)C(C)(C)NC1=O [Example 258] (cyclo([Bip(4'-COOH)][4Pal][Phe(4-COOH)]G[Pro(cis-4-F)][Trp(βS-Me,4-F)][Aib]SW[d(αMeF)]EQ[Dab]G[dPro(4R-(4-pyridylmethyl))]))"

# Same assay, conditions: inhibition of IL-1β induced IL-6 secretion in MRC5 cells; read-out: MRC5 IC50
row,SMILES,IC50 [nM]
1,"C[C@@H](c1c[nH]c2cccc(F)c12)[C@@H]1NC(=O)[C@@H]2C[C@H](F)CN2C(=O)CNC(=O)[C@H](Cc2ccc(C(=O)O)cc2)NC(=O)[C@H](Cc2ccncc2)NC(=O)[C@H](Cc2ccc(-c3ccc(C(=O)O)cc3)cc2)NC(=O)[C@H]2C[C@@H](Cc3ccncc3)CN2C(=O)CNC(=O)[C@H](CCN)NC(=O)[C@H](CCC(N)=O)NC(=O)[C@H](Cc2cncnc2)NC(=O)C(C)(C)NC(=O)[C@H](Cc2c[nH]c3ccccc23)NC(=O)[C@H](CO)NC(=O)C(C)(C)NC1=O [Example 42] (cyclo([4Pal][Phe(4-COOH)]G[Pro(cis-4-F)][Trp(βS-Me,4-F)][Aib]SW[Aib][Ala(pyrimidin-5-yl)]Q[Dab]G[dPro(4R-(4-pyridylmethyl))][Bip(4'-COOH)]))",0.021
2,C[C@@H](c1cccc2ccccc12)[C@@H]1NC(=O)[C@@H]2C[C@H](F)CN2C(=O)CNC(=O)[C@H](Cc2ccc(C(=O)O)cc2)NC(=O)[C@H](Cc2ccncc2)NC(=O)[C@H](Cc2ccc(-c3ccc(C(=O)O)cc3)cc2)NC(=O)[C@H]2C[C@@H](Cc3ccc(F)cc3)CN2C(=O)CNC(=O)[C@H](CCN)NC(=O)[C@H](CCC(N)=O)NC(=O)[C@H](Cc2cncnc2)NC(=O)C(C)(C)NC(=O)[C@H](Cc2c[nH]c3ccccc23)NC(=O)[C@H](CO)NC(=O)C(C)(C)NC1=O [Example 140] (cyclo([Bip(4'-COOH)][4Pal][Phe(4-COOH)]G[Pro(cis-4-F)][1Nal(3S-Me)][Aib]SW[Aib][Ala(pyrimidin-5-yl)]Q[Dab]G[dPro(4R-Bzl(4-F))])),0.033
3,"C[C@@H](c1c[nH]c2cccc(F)c12)[C@@H]1NC(=O)[C@@H]2C[C@H](F)CN2C(=O)CNC(=O)[C@H](Cc2ccc(C(=O)O)cc2)NC(=O)[C@H](Cc2ccncc2)NC(=O)[C@H](Cc2ccc(-c3ccc(C(=O)O)cc3)cc2)NC(=O)[C@H]2C[C@@H](Cc3ccc(F)cc3)CN2C(=O)CNC(=O)[C@H](CCCN)NC(=O)[C@H](CCC(N)=O)NC(=O)[C@H](Cc2cncnc2)NC(=O)C(C)(C)NC(=O)[C@H](Cc2c[nH]c3ccccc23)NC(=O)[C@H](CCC(=O)O)NC(=O)C(C)(C)NC1=O [Example 8] (cyclo([Bip(4'-COOH)][4Pal][Phe(4-COOH)]G[Pro(cis-4-F)][Trp(βS-Me,4-F)][Aib]EW[Aib][Ala(pyrimidin-5-yl)]Q[Orn]G[dPro(4R-Bzl(4-F))]))",0.026

# Second part, the compound after the results:
row,IC50 [nM],SMILES
1,0.039,"C[C@@H](c1c[nH]c2cccc(F)c12)[C@@H]1NC(=O)[C@@H]2C[C@H](F)CN2C(=O)CNC(=O)[C@H](Cc2ccc(C(=O)O)cc2)NC(=O)[C@H](Cc2ccncc2)NC(=O)[C@H](Cc2ccc(-c3ccc(C(=O)O)cc3)cc2)NC(=O)[C@H]2C[C@@H](Cc3ccc(F)cc3)CN2C(=O)CNC(=O)[C@H](CCN)NC(=O)[C@H](CCC(N)=O)NC(=O)[C@H](CO)NC(=O)C(C)(C)NC(=O)[C@H](Cc2c[nH]c3ccccc23)NC(=O)[C@H](CO)NC(=O)C(C)(C)NC1=O [Example 5] (cyclo([Bip(4'-COOH)][4Pal][Phe(4-COOH)]G[Pro(cis-4-F)][Trp(βS-Me,4-F)][Aib]SW[Aib]SQ[Dab]G[dPro(4R-Bzl(4-F))]))"
2,0.017,"CC(C)C[C@@H]1NC(=O)[C@@](C)(CC(=O)O)NC(=O)[C@H](Cc2c[nH]c3ccccc23)NC(=O)[C@H](CO)NC(=O)C(C)(C)NC(=O)[C@H]([C@@H](C)c2c[nH]c3cccc(F)c23)NC(=O)[C@@H]2C[C@H](F)CN2C(=O)CNC(=O)[C@H](Cc2ccc(C(=O)O)cc2)NC(=O)[C@H](CC23CC(C2)C3)NC(=O)[C@H](Cc2ccc(-c3ccc(C(=O)O)cc3)cc2)NC(=O)[C@H]2C[C@@H](Cc3ccncc3)CN2C(=O)CNC(=O)[C@H](CCN)NC(=O)[C@H](CCC(N)=O)NC1=O [Example 349] (cyclo([Bip(4'-COOH)][Ala(1-bicyclo(1.1.1)pentyl)][Phe(4-COOH)]G[Pro(cis-4-F)][Trp(βS-Me,4-F)][Aib]SW[d(αMeD)]LQ[Dab]G[dPro(4R-(4-pyridylmethyl))]))"
